Measurements from patent publication US20230135152A1 (ACURASTEM INCORPORATED, priority 2020, published 2023).
Structures can show the parent of a compound that is named as a salt.

Biological target: PIKFYVE (Homo sapiens, UniProt Q9Y2I7)
Assay: PIKFYVE assay (luciferase ADP-Glo kinase assay, Promega)
Format: biochemical
Procedure: The activity of Compounds 1-20 was measured using a PIKFYVE assay (luciferase ADP-Glo kinase assay available from Promega Corp. of Madison, Wis.).
The activity of Compounds 39-90 was also measured using a PIKFYVE assay (luciferase ADP-Glo kinase assay available from Promega Corp. of Madison, Wis.).
The activity of Compounds 93-347 was also measured using a PIKFYVE assay (luciferase ADP-Glo kinase assay available from Promega Corp. of Madison, Wis.).

Chain of PIKFYVE (Q9Y2I7 whole entry): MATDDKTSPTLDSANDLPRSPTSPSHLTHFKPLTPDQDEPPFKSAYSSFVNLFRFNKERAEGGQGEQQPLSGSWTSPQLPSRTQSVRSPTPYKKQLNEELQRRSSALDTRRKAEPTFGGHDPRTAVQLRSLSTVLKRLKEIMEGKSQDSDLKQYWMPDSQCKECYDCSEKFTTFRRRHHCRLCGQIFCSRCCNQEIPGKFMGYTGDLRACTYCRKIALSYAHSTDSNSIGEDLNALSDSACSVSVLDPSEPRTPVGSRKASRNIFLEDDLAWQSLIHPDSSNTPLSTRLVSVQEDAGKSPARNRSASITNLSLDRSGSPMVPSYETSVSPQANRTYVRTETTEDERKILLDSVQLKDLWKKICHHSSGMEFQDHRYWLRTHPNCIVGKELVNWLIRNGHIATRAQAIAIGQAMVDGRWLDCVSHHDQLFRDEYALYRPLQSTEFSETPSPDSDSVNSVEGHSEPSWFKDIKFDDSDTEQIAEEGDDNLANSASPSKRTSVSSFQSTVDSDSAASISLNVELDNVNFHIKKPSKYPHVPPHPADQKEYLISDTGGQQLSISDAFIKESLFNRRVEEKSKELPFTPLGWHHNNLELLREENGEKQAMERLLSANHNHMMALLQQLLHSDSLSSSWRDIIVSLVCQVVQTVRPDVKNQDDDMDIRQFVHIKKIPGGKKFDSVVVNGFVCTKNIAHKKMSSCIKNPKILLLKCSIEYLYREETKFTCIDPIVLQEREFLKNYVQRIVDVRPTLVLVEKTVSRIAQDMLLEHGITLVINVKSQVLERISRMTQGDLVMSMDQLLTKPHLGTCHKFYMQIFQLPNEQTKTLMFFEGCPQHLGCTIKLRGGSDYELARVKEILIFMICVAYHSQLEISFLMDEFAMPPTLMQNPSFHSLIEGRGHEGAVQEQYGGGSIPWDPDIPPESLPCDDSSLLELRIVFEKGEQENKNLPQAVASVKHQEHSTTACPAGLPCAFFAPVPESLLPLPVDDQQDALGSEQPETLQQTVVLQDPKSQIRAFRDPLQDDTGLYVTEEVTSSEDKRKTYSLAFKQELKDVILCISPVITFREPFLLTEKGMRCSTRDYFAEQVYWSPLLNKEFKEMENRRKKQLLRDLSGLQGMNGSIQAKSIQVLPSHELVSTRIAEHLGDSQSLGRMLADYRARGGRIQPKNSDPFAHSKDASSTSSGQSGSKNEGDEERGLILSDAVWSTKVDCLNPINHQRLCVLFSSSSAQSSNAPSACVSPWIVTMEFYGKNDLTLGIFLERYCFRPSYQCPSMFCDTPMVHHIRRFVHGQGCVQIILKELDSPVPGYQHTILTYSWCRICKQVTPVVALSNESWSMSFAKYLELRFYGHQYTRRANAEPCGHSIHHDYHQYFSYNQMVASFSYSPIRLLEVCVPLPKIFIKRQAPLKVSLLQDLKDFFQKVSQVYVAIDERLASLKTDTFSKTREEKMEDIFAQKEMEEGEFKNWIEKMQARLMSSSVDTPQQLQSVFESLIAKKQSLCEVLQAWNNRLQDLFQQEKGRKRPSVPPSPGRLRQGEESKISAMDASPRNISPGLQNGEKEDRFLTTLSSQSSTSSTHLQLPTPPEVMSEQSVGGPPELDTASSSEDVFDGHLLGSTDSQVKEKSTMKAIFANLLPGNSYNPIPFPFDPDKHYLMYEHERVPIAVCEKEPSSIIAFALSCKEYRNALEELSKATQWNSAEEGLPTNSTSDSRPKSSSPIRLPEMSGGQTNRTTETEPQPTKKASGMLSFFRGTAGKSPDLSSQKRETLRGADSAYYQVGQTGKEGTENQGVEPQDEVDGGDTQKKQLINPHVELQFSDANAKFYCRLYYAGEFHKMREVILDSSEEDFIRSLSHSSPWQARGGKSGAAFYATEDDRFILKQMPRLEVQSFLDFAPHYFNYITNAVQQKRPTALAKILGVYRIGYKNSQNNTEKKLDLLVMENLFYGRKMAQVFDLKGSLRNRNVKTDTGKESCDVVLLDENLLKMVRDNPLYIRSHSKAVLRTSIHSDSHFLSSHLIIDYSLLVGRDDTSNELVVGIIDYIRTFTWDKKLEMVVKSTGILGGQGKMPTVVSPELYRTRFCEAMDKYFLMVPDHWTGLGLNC

| IC50 (Table 3) | SMILES | further results |
| --- | --- | --- |
|  | COCCSc1cc(-n2ccc(-c3cccc(C)c3)n2)nc(OCC2CCCO2)n1 (stereo not drawn) [Compound 18, 4-((2-methoxyethyl)thio)-2-((tetrahydrofuran-2-yl)methoxy)-6-(3-(m-tolyl)-1H-pyrazol-1-yl)pyrimidine] | IC50 (Table 1): 1000 to 10000 nM |
| > 5000 nM | CN(c1nc(OCCc2cnn(C)c2)cc(N2CCOCC2)n1)c1ncc2ccccc2n1 [Compound 252, N-methyl-N-(4-(2-(1-methyl-1H-pyrazol-4-yl)ethoxy)-6-morpholinopyrimidin-2-yl)quinazolin-2-amine] |  |
|  | Clc1ccc(-c2ccn(-c3cc(N4CCOCC4)nc(OCCc4ccccn4)n3)n2)cc1 [Compound 40] | IC50 (Table 2): 101 to 1000 nM |
| 10 to 100 nM | CO[C@H](C)c1cccc(-c2ccn(-c3cc(N4CCOCC4)nc(OCCc4cnn(C)c4)n3)n2)c1 (single isomer, unassigned) [Compound 340] |  |
| 10 to 100 nM | CO[C@@H](CO)c1nc(N2CCOCC2)cc(-n2nc(-c3ccccc3)cc2C2CC2)n1 (single isomer, unassigned) [Compound 257] |  |
| 10 to 100 nM | CO[C@@H](CO)c1nc(N2CCOCC2)cc(-n2ccc(-c3cccc4c3OCO4)n2)n1 [Compound 267, (R)-2-(4-(3-(benzo[d][1,3]dioxol-4-yl)-1H-pyrazol-1-yl)-6-morpholinopyrimidin-2-yl)-2-methoxyethan-1-ol] |  |
| 10 to 100 nM | Cn1cc(CCOc2nc(N3CCOCC3)cc(-n3ccc(-c4cccc5c4OCCN5)n3)n2)cn1 [Compound 244, 8-(1-(2-(2-(1-methyl-1H-pyrazol-4-yl)ethoxy)-6-morpholinopyrimidin-4-yl)-1H-pyrazol-3-yl)-3,4-dihydro-2H-benzo[b][1,4]oxazine] |  |
| 100 to 5000 nM | CO[C@H](CO)c1nc(N2CCOCC2)cc(-n2nc(-c3c[nH]c4cnccc34)cc2C)n1 [Compound 286, (S)-2-methoxy-2-(4-(5-methyl-3-(1H-pyrrolo[2,3-c]pyridin-3-yl)-1H-pyrazol-1-yl)-6-morpholinopyrimidin-2-yl)ethan-1-ol] |  |
| 100 to 5000 nM | Cc1cccc(N2CC(C)N(c3cc(N4CCOCC4)nc(OCCc4cnn(C)c4)n3)C2=O)c1 (stereo not drawn) [Compound 246, 4-methyl-3-(2-(2-(1-methyl-1H-pyrazol-4-yl)ethoxy)-6-morpholinopyrimidin-4-yl)-1-(m-tolyl)imidazolidin-2-one] |  |
| 100 to 5000 nM | CN(C)C(=O)c1cc(-c2ccccc2)nn1-c1cc(N2CCOCC2)nc(OCCc2cnn(C)c2)n1 [Compound 222, N,N-dimethyl-1-(2-(2-(1-methyl-1H-pyrazol-4-yl)ethoxy)-6-morpholinopyrimidin-4-yl)-3-phenyl-1H-pyrazole-5-carboxamide] |  |
| 10 to 100 nM | CCc1cc(-c2ccccc2)nn1-c1cc(N2CCOCC2)nc([C@H](CO)OC)n1 [Compound 295, (R)-2-(4-(5-ethyl-3-phenyl-1H-pyrazol-1-yl)-6-morpholinopyrimidin-2-yl)-2-methoxyethan-1-ol] |  |
| 10 to 100 nM | Cc1cccc(-c2ccn(-c3nc4c(c(N5CCOCC5)n3)CN(CCc3ccn(C)n3)C4)n2)c1 [Compound 239, 4-(6-(2-(1-methyl-1H-pyrazol-3-yl)ethyl)-2-(3-(m-tolyl)-1H-pyrazol-1-yl)-6,7-dihydro-5H-pyrrolo[3,4-d]pyrimidin-4-yl)morpholine hydrochloride] |  |
| 10 to 100 nM | Cc1c2ccc(CO)cc2nn1-c1cc(N2CCOCC2)nc(OCCc2cnn(C)c2)n1 [Compound 255, (3-methyl-2-(2-(2-(1-methyl-1H-pyrazol-4-yl)ethoxy)-6-morpholinopyrimidin-4-yl)-2H-indazol-6-yl)methanol] |  |
| 10 to 100 nM | Cc1cccc(-c2ccn(-c3cc(N4CC[C@H]5OCC[C@H]54)nc(C(O)CO)n3)n2)c1 (stereo partly drawn) [Compound 151, 1-(4-((3aR,6aR)-hexahydro-4H-furo[3,2-b]pyrrol-4-yl)-6-(3-(m-tolyl)-1H-pyrazol-1-yl)pyrimidin-2-yl)ethane-1,2-diol] |  |
| 100 to 5000 nM | Cc1c2cc(CN(C)C)ccc2nn1-c1cc(N2CCOCC2)nc(OCCc2cnn(C)c2)n1 [Compound 254, N,N-dimethyl-1-(3-methyl-2-(2-(2-(1-methyl-1H-pyrazol-4-yl)ethoxy)-6-morpholinopyrimidin-4-yl)-2H-indazol-5-yl)methanamine] |  |
|  | Cc1cccc(-c2ccn(-c3cc(N4CCOCC4)nc(NCCc4ccccn4)n3)n2)c1 [Compound 46, 4-morpholino-N-(2-(pyridin-2-yl)ethyl)-6-(3-(m-tolyl)-1H-pyrazol-1-yl)pyrimidin-2-amine] | IC50 (Table 2): 5 to 100 nM |
| 100 to 5000 nM | Cc1cccc(-c2ccn(-c3cc(N4CCOCC4)c4c(ccn4C)n3)n2)c1 [Compound 333, 4-(1-methyl-5-(3-(m-tolyl)-1H-pyrazol-1-yl)-1H-pyrrolo[3,2-b]pyridin-7-yl)morpholine] |  |
| 3 to 10 nM | Cc1cccc(-c2ccn(-c3cc(N4CCOCC4)nc(OCCc4ccccn4)n3)n2)c1 [Compound 92, 4-(2-(2-(pyridin-2-yl)ethoxy)-6-(3-(m-tolyl)-1H-pyrazol-1-yl)pyrimidin-4-yl)morpholine] |  |
| 10 to 100 nM | CO[C@H](CO)c1nc(N2CCOCC2)cc(-n2ccc(-c3cc(C)ccc3C)n2)n1 (single isomer, unassigned) [Compound 343] |  |
| 100 to 5000 nM | Cn1cc(CCOc2nc(Oc3cc(-c4ccccc4)n(C)n3)cc(N3CCOCC3)n2)cn1 [Compound 213, 4-(2-(2-(1-methyl-1H-pyrazol-4-yl)ethoxy)-6-((1-methyl-5-phenyl-1H-pyrazol-3-yl)oxy)pyrimidin-4-yl)morpholine] |  |

| IC50 (Table 3) | SMILES | further results |
| --- | --- | --- |
| 100 to 5000 nM | CO[C@H](CO)c1nc(N2CCOCC2)cc(-n2ccc(-c3cccc(C)c3C)n2)n1 [Compound 264, (S)-2-(4-(3-(2,3-dimethylphenyl)-1H-pyrazol-1-yl)-6-morpholinopyrimidin-2-yl)-2-methoxyethan-1-ol] |  |
| > 5000 nM | Cn1cc(CCOc2nc(N3CCOCC3)cc(-n3ccc(C4CCCCC4)n3)n2)cn1 [Compound 196, 4-(6-(3-cyclohexyl-1H-pyrazol-1-yl)-2-(2-(1-methyl-1H-pyrazol-4-yl)ethoxy)pyrimidin-4-yl)morpholine] |  |
|  | CC(C)(C)c1ccn(-c2cc(N3CCOCC3)nc(OCC(O)CO)n2)n1 (stereo not drawn) [Compound 51] | IC50 (Table 2): 1000 to 10000 nM |
|  | OCc1nc(N2CCOCC2)cc(-n2ccc(-c3ccccc3)n2)n1 [Compound 84] | IC50 (Table 2): 5 to 100 nM |
| 3 to 10 nM | Cc1cccc(-c2ccn(-c3cc(N4CCOCC4)nc(N(C)CCc4ccccn4)n3)n2)c1 [Compound 91, N-methyl-4-morpholino-N-(2-(pyridin-2-yl)ethyl)-6-(3-(m-tolyl)-1H-pyrazol-1-yl)pyrimidin-2-amine] |  |
| 100 to 5000 nM | CO[C@@H](CO)c1nc(N2CCOCC2)cc(-n2nc(-c3c[nH]c4cccnc34)cc2C)n1 [Compound 291, (R)-2-methoxy-2-(4-(5-methyl-3-(1H-pyrrolo[3,2-b]pyridin-3-yl)-1H-pyrazol-1-yl)-6-morpholinopyrimidin-2-yl)ethan-1-ol] |  |
|  | Cc1cccc(-c2ccn(-c3cc(N4CCOCC4)nc(NC(=O)Cc4cnn(C)c4)n3)n2)c1 [Compound 65] | IC50 (Table 2): < 5 nM |
| 10 to 100 nM | CO[C@H](CO)c1nc(N2CCOCC2)cc(-n2nc(-c3ccccc3)cc2C2CC2)n1 (single isomer, unassigned) [Compound 256] |  |
|  | Fc1ccc(-c2cnn(-c3cc(N4CC[C@H]5OCC[C@H]54)nc(OCCc4ccccn4)n3)c2)cc1 [Compound 41] | IC50 (Table 2): 1000 to 10000 nM |
| 100 to 5000 nM | Cc1cccc(CC(=O)Nc2cc(N3CCOCC3)nc(OCCc3cnn(C)c3)n2)c1 [Compound 249, N-(2-(2-(1-methyl-1H-pyrazol-4-yl)ethoxy)-6-morpholinopyrimidin-4-yl)-2-(m-tolyl)acetamide] |  |
| 100 to 5000 nM | CO[C@H](CO)c1nc(N2CCOCC2)cc(-n2nc(-c3c[nH]c4cccnc34)cc2C)n1 [Compound 290, (S)-2-methoxy-2-(4-(5-methyl-3-(1H-pyrrolo[3,2-b]pyridin-3-yl)-1H-pyrazol-1-yl)-6-morpholinopyrimidin-2-yl)ethan-1-ol] |  |
| 100 to 5000 nM | Cc1cccc(-c2cn(C)n(-c3cc(N4CCOCC4)nc(OCCc4cnn(C)c4)n3)c2=O)c1 [Compound 247, 1-methyl-2-(2-(2-(1-methyl-1H-pyrazol-4-yl)ethoxy)-6-morpholinopyrimidin-4-yl)-4-(m-tolyl)-1,2-dihydro-3H-pyrazol-3-one] |  |
| 10 to 100 nM | CN(C)Cc1ccc2nn(-c3cc(N4CCOCC4)nc(OCCc4cnn(C)c4)n3)cc2c1 [Compound 253, N,N-dimethyl-1-(2-(2-(2-(1-methyl-1H-pyrazol-4-yl)ethoxy)-6-morpholinopyrimidin-4-yl)-2H-indazol-5-yl)methanamine] |  |
|  | Cc1cn(-c2cc(N3CCOCC3)nc(OCCc3cnn(C)c3)n2)nc1-c1ccccc1 [Compound 63, 4-(2-(2-(1-methyl-1H-pyrazol-4-yl)ethoxy)-6-(4-methyl-3-phenyl-1H-pyrazol-1-yl)pyrimidin-4-yl)morpholine] | IC50 (Table 2): 101 to 1000 nM |
| 100 to 5000 nM | Cc1cc(-c2ccccc2)nn1-c1cc(N2CCOCC2)c2[nH]ccc2n1 [Compound 243, 4-(5-(5-methyl-3-phenyl-1H-pyrazol-1-yl)-1H-pyrrolo[3,2-b]pyridin-7-yl)morpholine] |  |
|  | OCC(O)COc1nc(N2CCOCC2)cc(-n2ncc3ccccc32)n1 (stereo not drawn) [Compound 53] | IC50 (Table 2): 101 to 1000 nM |
| 100 to 5000 nM | CO[C@H](CO)c1nc(N2CCOCC2)cc(-n2nc(-c3cnc4ccccn34)cc2C)n1 [Compound 280, (S)-2-(4-(3-(imidazo[1,2-a]pyridin-3-yl)-5-methyl-1H-pyrazol-1-yl)-6-morpholinopyrimidin-2-yl)-2-methoxyethan-1-ol] |  |
| 100 to 5000 nM | CO[C@@H](CO)c1nc(N2CCOCC2)cc(-n2nc(-c3c[nH]c4cnccc34)cc2C)n1 [Compound 287, (R)-2-methoxy-2-(4-(5-methyl-3-(1H-pyrrolo[2,3-c]pyridin-3-yl)-1H-pyrazol-1-yl)-6-morpholinopyrimidin-2-yl)ethan-1-ol] |  |
| 100 to 5000 nM | CO[C@@H](CO)c1nc(N2CCOCC2)cc(-n2nc(-c3c[nH]c4ccncc34)cc2C)n1 [Compound 289, (R)-2-methoxy-2-(4-(5-methyl-3-(1H-pyrrolo[3,2-c]pyridin-3-yl)-1H-pyrazol-1-yl)-6-morpholinopyrimidin-2-yl)ethan-1-ol] |  |
